# Reference: ChEMBL document CHEMBL1149357, “Propionylpiperazines as human melanocortin-4 receptor ligands” (Bioorg Med Chem Lett, 2006)
# How the values were obtained:
# [1] = target: T1, Melanocortin receptor 4 (Homo sapiens, UniProt P32245); experiment: Displacement of [125I]NDP-MSH from human MC4R stably expressed in HEK293 cells; format: cell-based
# [2] = target: Melanocyte-stimulating hormone receptor (Homo sapiens, UniProt Q01726); experiment: Displacement of [125I]NDP-MSH from human MC1R stably expressed in HEK293 cells; format: cell-based
# [3] = target: Melanocortin receptor 3 (Homo sapiens, UniProt P41968); experiment: Displacement of [125I]NDP-MSH from human MC3R stably expressed in HEK293 cells; format: cell-based
# Sequence of Melanocortin receptor 3 (P41968 whole entry): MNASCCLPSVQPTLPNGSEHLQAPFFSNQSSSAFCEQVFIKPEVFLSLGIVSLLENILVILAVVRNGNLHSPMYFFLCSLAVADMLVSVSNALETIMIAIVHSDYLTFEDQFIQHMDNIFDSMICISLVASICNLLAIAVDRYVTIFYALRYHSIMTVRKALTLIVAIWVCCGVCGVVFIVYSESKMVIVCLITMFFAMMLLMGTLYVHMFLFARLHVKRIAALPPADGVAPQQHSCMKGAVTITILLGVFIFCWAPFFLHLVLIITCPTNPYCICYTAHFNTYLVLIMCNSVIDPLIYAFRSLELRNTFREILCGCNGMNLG
# [4] = target: Melanocortin receptor 5 (Homo sapiens, UniProt P33032); experiment: Displacement of [125I]NDP-MSH from human MC5R stably expressed in HEK293 cells; format: cell-based
# Sequence of Melanocortin receptor 5 (P33032 whole entry): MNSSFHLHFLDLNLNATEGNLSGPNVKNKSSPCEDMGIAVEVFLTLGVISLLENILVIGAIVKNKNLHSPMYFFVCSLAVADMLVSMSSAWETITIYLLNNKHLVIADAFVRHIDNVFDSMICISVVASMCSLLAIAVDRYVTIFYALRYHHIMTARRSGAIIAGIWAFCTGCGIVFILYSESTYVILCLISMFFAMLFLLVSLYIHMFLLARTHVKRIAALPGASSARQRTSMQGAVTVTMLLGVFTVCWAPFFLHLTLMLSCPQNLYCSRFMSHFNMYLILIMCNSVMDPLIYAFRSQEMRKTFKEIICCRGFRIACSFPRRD
# [5] = target: T1, Melanocortin receptor 4; experiment: Activity at MC4R assessed as inhibition of alpha MSH-stimulated cAMP production in HEK293 cells; format: functional, cell-based
# [6] = Clearance in mouse at 5 mg/kg, iv; format: ADME, organism-based; design: dose 5 mg/kg, route intravenous; conditions: in vivo
# [7] = Volume of distribution in mouse at 5 mg/kg, iv; format: ADME, organism-based; design: dose 5 mg/kg, route intravenous; conditions: in vivo, read-out: Vdss
# [8] = Half life in mouse at 5 mg/kg, iv; format: ADME, organism-based; design: dose 5 mg/kg, route intravenous; conditions: in vivo
# [9] = system: Mus musculus; experiment: AUC in mouse at 5 mg/kg, iv; format: ADME, organism-based, Plasma; design: dose 5 mg/kg, route intravenous; conditions: in vivo
# [10] = Drug level in mouse brain at 5 mg/kg, iv after 1 hr; format: ADME, organism-based; design: dose 5 mg/kg, route intravenous; conditions: read-out: Drug uptake
# [11] = Drug level in mouse brain at 5 mg/kg, iv after 4 hrs; format: ADME, organism-based; design: dose 5 mg/kg, route intravenous; conditions: read-out: Drug uptake
# [12] = Cmax in mouse at 10 mg/kg, po; format: ADME, organism-based; design: dose 10 mg/kg, route oral; conditions: in vivo
# [13] = Tmax in mouse at 10 mg/kg, po; format: ADME, organism-based; design: dose 10 mg/kg, route oral; conditions: in vivo
# [14] = system: Mus musculus; experiment: AUC in mouse at 10 mg/kg, po; format: ADME, organism-based, Plasma; design: dose 10 mg/kg, route oral; conditions: in vivo
# [15] = Bioavailability in mouse at 10 mg/kg, po; format: ADME, organism-based; conditions: in vivo
# [16] = Lipophilicity, log D of the compound; format: physicochemical; conditions: octanol/water
# T1 sequence (P32245 whole entry): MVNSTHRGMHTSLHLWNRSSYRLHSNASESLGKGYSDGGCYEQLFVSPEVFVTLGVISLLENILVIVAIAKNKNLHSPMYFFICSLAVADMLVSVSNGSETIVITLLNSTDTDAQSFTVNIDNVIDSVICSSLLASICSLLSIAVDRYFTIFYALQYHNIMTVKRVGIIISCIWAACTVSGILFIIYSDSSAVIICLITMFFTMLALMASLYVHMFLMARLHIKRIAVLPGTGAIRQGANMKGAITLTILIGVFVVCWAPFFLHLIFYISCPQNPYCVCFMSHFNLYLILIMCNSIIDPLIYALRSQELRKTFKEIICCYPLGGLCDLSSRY
Compound,Ki [1],other results
COc1cc(CC(C)C(=O)N2CCN(c3ccc(C(F)(F)F)cc3[C@@H](N)CC(C)C)CC2)ccc1Cl (stereo not given in full),230 nM,–
CC(C)C[C@H](N)c1cc(C(F)(F)F)ccc1N1CCN(C(=O)C(C)Cc2ccc(Cl)c(Cl)c2)CC1 (stereo in doubt; 8q),1600 nM,–
CC(C)C[C@H](N)c1cc(C(F)(F)F)ccc1N1CCN(C(=O)Cn2cnc3ccccc32)CC1,2100 nM,–
CC(C)C[C@H](N)c1ccccc1N1CCN(C(=O)[C@H](C)Cc2ccc(Cl)cc2Cl)CC1,16 nM,–
CC(C)C[C@H](N)c1cc(Cl)ccc1N1CCN(C(=O)C(C)Cc2ccc(Cl)cc2)CC1 (stereo not given in full),67 nM,–
COc1cc(Cl)ccc1CC(C)C(=O)N1CCN(c2ccc(C(F)(F)F)cc2[C@@H](N)CC(C)C)CC1 (stereo not given in full),14 nM,Activity [2]: 23%; Ki [3]: 320 nM; Ki [4]: 86 nM; IC50 [5]: 1700 nM; clearance [6]: 62.3 mL/min/kg; Vd [7]: 10.3 L/kg; half-life [8]: 1.9 h; AUC [9]: 1450 ng·h/mL; concentration at 1 h [10]: 735 ng/g; concentration at 4 h [11]: 122 ng/g; Cmax [12]: 99 ng/mL; Tmax [13]: 0.25 h; AUC [14]: 249 ng·h/mL; bioavailability [15]: 8.6%; logD [16]: > 4
CC(C)C[C@H](N)c1cc(C(F)(F)F)ccc1N1CCN(C(=O)[C@@H](C)Cc2ccc(Cl)cc2Cl)CC1,140 nM,–
CC(C)C[C@H](N)c1cc(C(F)(F)F)ccc1N1CCN(C(=O)[C@H](C)Cc2ccc(Cl)cc2)CC1,31 nM,–
CC(C)C[C@H](N)c1cc(C(F)(F)F)ccc1N1CCN(C(=O)CC(C)C(=O)c2ccc(Cl)cc2)CC1 (stereo not given in full),1100 nM,–
Cc1cc(Cl)ccc1CC(C)C(=O)N1CCN(c2ccc(C(F)(F)F)cc2[C@@H](N)CC(C)C)CC1 (stereo not given in full),38 nM,–
CC(C)C[C@H](N)c1cc(C(F)(F)F)ccc1N1CCN(C(=O)COc2ccc(Cl)c(Cl)c2)CC1,2500 nM,–
CC(C)C[C@H](N)c1ccccc1N1CCN(C(=O)[C@H](C)Cc2ccc(Cl)cc2)CC1,80 nM,–
COc1ccc(CC(C)C(=O)N2CCN(c3ccc(C(F)(F)F)cc3[C@@H](N)CC(C)C)CC2)cc1F (stereo not given in full),200 nM,–
COc1cc(Cl)ccc1C[C@@H](C)C(=O)N1CCN(c2ccc(C)cc2[C@@H](N)CC(C)C)CC1,8.1 nM,–
COc1cc(Cl)ccc1C[C@@H](C)C(=O)N1CCN(c2ccc(C(F)(F)F)cc2[C@@H](N)CC(C)C)CC1,6.5 nM,–
CC(C)C[C@H](N)c1cc(C(F)(F)F)ccc1N1CCN(C(=O)COc2cccc(Cl)c2)CC1,2600 nM,–
COc1cccc(CC(C)C(=O)N2CCN(c3ccc(C(F)(F)F)cc3[C@@H](N)CC(C)C)CC2)c1 (stereo not given in full),3100 nM,–
CC(C)C[C@H](N)c1cc(C(F)(F)F)ccc1N1CCN(C(=O)C(C)Cc2ccc(Cl)cc2O)CC1 (stereo not given in full),36 nM,–
CC(C)C[C@H](N)c1ccccc1N1CCN(C(=O)[C@H](C)Cc2ccc(Cl)cc2F)CC1,67 nM,–
CC(C)C[C@H](N)c1cc(C(F)(F)F)ccc1N1CCN(C(=O)CCC(N)=O)CC1,> 10000 nM,–

Compound,Ki [1],other results
CC(C)C[C@H](N)c1cc(C(F)(F)F)ccc1N1CCN(C(=O)C(C)Cc2ccc(Cl)c(Cl)c2)CC1 (stereo in doubt; 8j),120 nM,–
CC(C)C[C@H](N)c1cc(F)ccc1N1CCN(C(=O)C(C)Cc2ccc(Cl)cc2)CC1 (stereo not given in full),390 nM,–
CC(C)C[C@H](N)c1cc(C(F)(F)F)ccc1N1CCN(C(=O)CCCC2CCCCC2)CC1,4100 nM,–
CC(C)C[C@H](N)c1cc(C(F)(F)F)ccc1N1CCN(C(=O)C(C)Cc2cccc(Cl)c2)CC1 (stereo not given in full),920 nM,–
COc1ccc(CC(C)C(=O)N2CCN(c3ccc(C(F)(F)F)cc3[C@@H](N)CC(C)C)CC2)cc1 (stereo not given in full),120 nM,–
CC(C)C[C@H](N)c1cc(C(F)(F)F)ccc1N1CCN(C(=O)COc2ccc([N+](=O)[O-])cc2)CC1,3100 nM,–
COc1cc(Cl)ccc1C[C@H](C)C(=O)N1CCN(c2ccc(C(F)(F)F)cc2[C@@H](N)CC(C)C)CC1,31 nM,–
Cc1ccc(CC(C)C(=O)N2CCN(c3ccc(C(F)(F)F)cc3[C@@H](N)CC(C)C)CC2)cc1C (stereo not given in full),240 nM,–
CC(C)C[C@H](N)c1cc(C(F)(F)F)ccc1N1CCN(C(=O)COc2ccc(Cl)cc2Cl)CC1,4200 nM,–
CC(C)C[C@H](N)c1cc(C(F)(F)F)ccc1N1CCN(C(=O)COc2ccccc2Cl)CC1,4500 nM,–
Cc1ccc(OCC(=O)N2CCN(c3ccc(C(F)(F)F)cc3[C@@H](N)CC(C)C)CC2)c(C)c1,4000 nM,–
Cc1cc(CC(C)C(=O)N2CCN(c3ccc(C(F)(F)F)cc3[C@@H](N)CC(C)C)CC2)ccc1Cl (stereo not given in full),71 nM,–
Cc1ccc(CC(C)C(=O)N2CCN(c3ccc(C(F)(F)F)cc3[C@@H](N)CC(C)C)CC2)c(C)c1 (stereo not given in full),92 nM,–
CC(C)C[C@H](N)c1cc(C(F)(F)F)ccc1N1CCN(C(=O)COc2ccc3ccccc3c2)CC1,2000 nM,–
CC(C)C[C@H](N)c1cc(C(F)(F)F)ccc1N1CCN(C(=O)[C@H](C)Cc2ccc(Cl)cc2Cl)CC1,26 nM,–
CC(C)C[C@H](N)c1cc(C(F)(F)F)ccc1N1CCN(C(=O)C(C)Cc2ccc(Cl)cc2)CC1 (stereo not given in full),47 nM,–
CC(C)C[C@H](N)c1cc(C(F)(F)F)ccc1N1CCN(C(=O)Cc2ccc(Cl)cc2Cl)CC1,2800 nM,–
Cc1cc(Cl)ccc1C[C@@H](C)C(=O)N1CCN(c2ccccc2[C@@H](N)CC(C)C)CC1,12 nM,–
COc1cc(Cl)ccc1CC(C)C(=O)N1CCN(c2ccc(Cl)cc2[C@@H](N)CC(C)C)CC1 (stereo not given in full),9.1 nM,–
CC(C)C[C@H](N)c1cc(C(F)(F)F)ccc1N1CCN(C(=O)COc2ccccc2)CC1,> 10000 nM,–

Compound,Ki [1],other results
COc1ccc(OCC(=O)N2CCN(c3ccc(C(F)(F)F)cc3[C@@H](N)CC(C)C)CC2)cc1,3800 nM,–
Cc1ccc(N2CCN(C(=O)[C@H](C)Cc3ccc(Cl)cc3)CC2)c([C@@H](N)CC(C)C)c1,25 nM,Ki [2]: 3100 nM; Ki [3]: 1300 nM; Ki [4]: 1000 nM; IC50 [5]: 560 nM; clearance [6]: 33.3 mL/min/kg; Vd [7]: 10.2 L/kg; half-life [8]: 3.5 h; AUC [9]: 2560 ng·h/mL; concentration at 1 h [10]: 940 ng/g; concentration at 4 h [11]: 330 ng/g; Cmax [12]: 267 ng/mL; Tmax [13]: 0.5 h; AUC [14]: 1760 ng·h/mL; bioavailability [15]: 34.4%; logD [16]: 3
CC(C)C[C@H](N)c1cc(C(F)(F)F)ccc1N1CCN(C(=O)CCC(=O)c2ccc(Cl)cc2)CC1,820 nM,–
CC(C)C[C@H](N)c1cc(C(F)(F)F)ccc1N1CCN(C(=O)CCC2CCCCC2)CC1,5700 nM,–
CC(C)C[C@H](N)c1cc(C(F)(F)F)ccc1N1CCN(C(=O)CSc2ccc(Cl)cc2Cl)CC1,1500 nM,–
CC(C)C[C@H](N)c1cc(C(F)(F)F)ccc1N1CCN(C(=O)C(C)Cc2ccc(Cl)cc2F)CC1 (stereo not given in full),60 nM,–
Cc1cc(Cl)ccc1C[C@@H](C)C(=O)N1CCN(c2ccccc2[C@H](N)CC(C)C)CC1,1700 nM,–
COc1ccc(CC(C)C(=O)N2CCN(c3ccc(Cl)cc3[C@@H](N)CC(C)C)CC2)cc1 (stereo not given in full),160 nM,–
Cc1ccc(OCC(=O)N2CCN(c3ccc(C(F)(F)F)cc3[C@@H](N)CC(C)C)CC2)cc1,4400 nM,–
CC(C)C[C@H](N)c1cc(C(F)(F)F)ccc1N1CCN(C(=O)COc2ccc(O)cc2)CC1,4600 nM,–
CC(C)C[C@H](N)c1cc(C(F)(F)F)ccc1N1CCN(C(=O)CCNC2CCCCC2)CC1,4800 nM,–
CC(C)C[C@H](N)c1cc(C(F)(F)F)ccc1N1CCN(C(=O)COc2ccc(Cl)cc2)CC1,2900 nM,–
CCOc1cccc(CC(C)C(=O)N2CCN(c3ccc(C(F)(F)F)cc3[C@@H](N)CC(C)C)CC2)c1 (stereo not given in full),2200 nM,–
Cc1ccc(N2CCN(C(=O)[C@H](C)Cc3ccc(Cl)cc3Cl)CC2)c([C@@H](N)CC(C)C)c1,8.8 nM,–
CC(C)C[C@H](N)c1cc(C(F)(F)F)ccc1N1CCN(C(=O)CCC(=O)N(C)C)CC1,> 10000 nM,–
CC(C)C[C@H](N)c1cc(C(F)(F)F)ccc1N1CCN(C(=O)CNc2ccccc2)CC1,3600 nM,–
CC(C)C[C@H](N)c1cc(C(F)(F)F)ccc1N1CCN(C(=O)COc2cccc3ccccc23)CC1,2600 nM,–
CC(C)C[C@H](N)c1cc(C(F)(F)F)ccc1N1CCN(C(=O)COc2cccc(Cl)c2Cl)CC1,2500 nM,–
Cc1ccc(N2CCN(C(=O)[C@H](C)Cc3ccc(Cl)cc3F)CC2)c([C@@H](N)CC(C)C)c1,20 nM,–
Cc1ccc(N2CCN(C(=O)[C@H](C)Cc3ccc(Cl)cc3C)CC2)c([C@@H](N)CC(C)C)c1,5.9 nM,–
